Data published in US20250115598A1 (Anaxis Pharma Pty Ltd, priority 2021, published 2025).
pKd: −log10 of the molar value.

Tests used:
human RIPK1 = human RIPK1 (Homo sapiens (Human), UniProt Q13546); assay: KINOMEscan binding assay, human RIPK1; conditions: Table 21
Procedure, shortened: (§1)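 Kd values come from dose-response fits to the Hill equation (Hill slope −1, Levenberg–Marquardt least squares). Compound competed with bead-bound ligand for tagged kinase, and remaining kinase was measured by qPCR after elution. Dilution series: 11 points, 3-fold, 1% DMSO final, top 30,000 nM in most runs.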

human MLKL (full length) = human MLKL (full length) (Homo sapiens (Human), UniProt Q8NB16); assay: KINOMEscan binding assay, human MLKL (full length); conditions: KINOMEscan, Table 21; read-out: Human MLKL (full-length) (KD)
Description: Binding affinity of the test compounds for human MLKL (full length), mouse MLKL (full length), human RIPK1 and human RIPK3 was determined using the KINOMEscan™ technology developed by DiscoverX (USA; http://www.discoverx.com). The assay was conducted according to manufacturer instructions.
Kinase assays. For most assays, kinase-tagged T7 phage strains were grown in parallel in 24-well blocks in an E. coli host derived from the BL21 strain. E. coli were grown to log-phase and infected with T7 phage from a frozen stock (multiplicity of infection=0.4) and incubated with shaking at 32° C. until lysis (90-150 minutes). The lysates were centrifuged (6,000×g) and filtered (0.2 μm) to remove cell debris. The remaining kinases were produced in HEK-293 cells and subsequently tagged with DNA for qPCR detection. […] The liganded beads were blocked with excess biotin and washed with blocking buffer (SeaBlock (Pierce), 1% BSA, 0.05% Tween 20, 1 mM DTT) to remove unbound ligand and to reduce non-specific phage binding. […] All reactions were performed in polypropylene 384-well plates in a final volume of 20 μL. […] The kinase concentration in the eluates was measured by qPCR.
An 11-point 3-fold serial dilution of each test compound was prepared in 100% DMSO at 100× final test concentration and subsequently diluted to 1× in the assay (final DMSO concentration=1%). Most Kos were determined using a compound top concentration=30,000 nM.
KD for each test compound was calculated with a standard dose-response curve using the Hill equation (equation (1)): […]
The Hill Slope was set to −1.
Curves were fitted using a non-linear least square fit with the Levenberg-Marquardt algorithm.

human RIPK3 = human RIPK3 (Homo sapiens (Human), UniProt Q9Y572); assay: KINOMEscan binding assay, human RIPK3; conditions: Table 21
Procedure, shortened: as §1

Chain of human RIPK3 (Q9Y572 whole entry): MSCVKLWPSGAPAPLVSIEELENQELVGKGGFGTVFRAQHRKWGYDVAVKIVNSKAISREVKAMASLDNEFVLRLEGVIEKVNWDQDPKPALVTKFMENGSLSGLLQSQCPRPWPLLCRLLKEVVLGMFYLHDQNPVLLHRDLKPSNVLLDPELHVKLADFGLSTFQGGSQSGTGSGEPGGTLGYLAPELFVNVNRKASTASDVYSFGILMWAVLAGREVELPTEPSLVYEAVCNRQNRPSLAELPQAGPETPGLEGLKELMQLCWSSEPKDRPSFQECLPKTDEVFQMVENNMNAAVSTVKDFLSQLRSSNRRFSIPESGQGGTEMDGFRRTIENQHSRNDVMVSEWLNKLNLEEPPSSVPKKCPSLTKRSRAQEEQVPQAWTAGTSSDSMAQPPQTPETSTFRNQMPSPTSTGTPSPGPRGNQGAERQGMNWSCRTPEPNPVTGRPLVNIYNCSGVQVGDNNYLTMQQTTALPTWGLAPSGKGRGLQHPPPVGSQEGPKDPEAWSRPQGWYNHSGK
Chain of human RIPK1 (Q13546 whole entry): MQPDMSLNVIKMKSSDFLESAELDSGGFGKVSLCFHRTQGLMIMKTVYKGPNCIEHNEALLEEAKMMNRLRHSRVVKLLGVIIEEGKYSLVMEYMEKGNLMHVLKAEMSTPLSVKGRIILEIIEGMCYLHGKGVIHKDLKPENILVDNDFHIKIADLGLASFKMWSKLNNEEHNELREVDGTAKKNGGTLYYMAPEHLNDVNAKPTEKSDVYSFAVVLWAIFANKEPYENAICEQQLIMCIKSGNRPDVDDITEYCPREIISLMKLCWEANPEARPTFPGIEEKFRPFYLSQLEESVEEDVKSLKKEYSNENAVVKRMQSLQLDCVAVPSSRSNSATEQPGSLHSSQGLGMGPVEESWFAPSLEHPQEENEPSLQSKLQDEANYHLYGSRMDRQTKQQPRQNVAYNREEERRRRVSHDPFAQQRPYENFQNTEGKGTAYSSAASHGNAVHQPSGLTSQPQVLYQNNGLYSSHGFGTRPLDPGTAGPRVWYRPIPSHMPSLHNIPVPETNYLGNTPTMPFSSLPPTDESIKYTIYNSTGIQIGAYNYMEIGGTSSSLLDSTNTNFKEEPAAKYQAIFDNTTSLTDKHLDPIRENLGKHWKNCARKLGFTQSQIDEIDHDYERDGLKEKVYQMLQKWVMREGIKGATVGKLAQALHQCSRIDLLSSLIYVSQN
Chain of human MLKL (full length) (Q8NB16 whole entry): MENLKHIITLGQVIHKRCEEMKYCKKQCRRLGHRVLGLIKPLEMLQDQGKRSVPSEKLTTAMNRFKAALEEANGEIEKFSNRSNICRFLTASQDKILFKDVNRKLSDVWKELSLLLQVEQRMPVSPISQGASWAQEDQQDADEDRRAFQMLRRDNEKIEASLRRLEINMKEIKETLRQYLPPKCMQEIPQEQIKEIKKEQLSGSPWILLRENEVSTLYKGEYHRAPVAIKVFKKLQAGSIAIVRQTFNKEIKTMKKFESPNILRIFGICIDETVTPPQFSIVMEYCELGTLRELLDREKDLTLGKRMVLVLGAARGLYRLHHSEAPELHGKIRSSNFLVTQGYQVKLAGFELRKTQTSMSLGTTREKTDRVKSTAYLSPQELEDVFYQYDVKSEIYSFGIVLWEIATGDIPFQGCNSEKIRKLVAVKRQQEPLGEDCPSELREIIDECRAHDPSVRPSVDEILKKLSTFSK

Row | pKd (human RIPK1) | pKd (human MLKL (full length)) | pKd (human RIPK3) | SMILES
1 | < 5.00 | > 9.00 | < 5.00 | COCC(Oc1cc(-c2nn(C)c3c(-c4cnn(C5CCOCC5)c4)cnc(N)c23)ccc1NS(=O)(=O)C(F)F)c1ccc(F)cc1 (racemic) [Compound 102, N-(4-(4-amino-1-methyl-7-(1-(tetrahydro-2H-pyran-4-yl)-1H-pyrazol-4-yl)-1H-pyrazolo[4,3-c]pyridin-3-yl)-2-(1-(4-fluorophenyl)-2-methoxyethoxy)phenyl)-1,1-difuoromethane-sulfonamide]
2 | < 5.00 | > 9.00 | < 5.00 | CCS(=O)(=O)Nc1ccc(-c2coc3c(-c4cnn(C5CCOCC5)c4)cnc(N)c23)cc1OCc1ccc(F)cc1 [Compound 3, N-(4-(4-amino-7-(1-(tetrahydro-2H-pyran-4-yl)-1H-pyrazol-4-yl)furo[3,2-c]pyridin-3-yl)-2-((4-fluorobenzyl)oxy)phenyl)ethanesulfonamide]
3 | < 5.00 | > 9.00 | < 5.00 | Nc1ncc(-c2cnn(CCO)c2)c2occ(-c3ccc(NS(=O)(=O)C(F)F)c(OCc4ccc(F)cc4)c3)c12 [Compound 6, N-(4-(4-amino-7-(1-(2-hydroxyethyl)-1H-pyrazol-4-yl)furo[3,2-c]pyridin-3-yl)-2-((4-fluorobenzyl)oxy)phenyl)-1,1-difluoro-methanesulfonamide]
4 | < 5.00 |  | < 5.00 | C[C@H](Oc1cc(-c2nn(C)c3c(-c4cnn(C5CCOCC5)c4)cnc(N)c23)ccc1NS(=O)(=O)N(C)C)c1ccc(F)cc1 [Compound 124]
5 | < 5.00 |  | < 5.00 | C[C@H](Oc1cc(-c2nn(C)c3c(-c4cnn(C5CCOCC5)c4)cnc(N)c23)ccc1NS(=O)(=O)Cc1ccccc1)c1ccc(F)cc1 [Compound 125, (S)-N-(4-(4-amino-1-methyl-7-(1-(tetra-hydro-2H-pyran-4-yl)-1H-pyrazol-4-yl)-1H-pyrazolo[4,3-c]pyridin-3-yl)-2-(1-(4-fluoro-phenyl)eth-oxy)phenyl)-1-phenylmethane-sulfonamide]
6 | < 5.00 |  | < 5.00 | C[C@H](Oc1cc(-c2nn(C)c3c(-c4ccn(C)c4)cnc(N)c23)ccc1NS(=O)(=O)C(F)F)c1ccc(F)cc1 [Compound 126, (S)-N-(4-(4-amino-1-methyl-7-(1-methyl-1H-pyrrol-3-yl)-1H-pyrazolo[4,3-c]pyridin-3-yl)-2-(1-(4-fluorophenyl)ethoxy)phenyl)-1,1-difluoromethanesulfonamide]
7 | < 5.00 |  | < 5.00 | C[C@H](Oc1cc(-c2nn(C)c3c(C#CC4CCN(CC(F)(F)F)CC4)cnc(N)c23)ccc1NS(=O)(=O)C(F)F)c1ccc(F)cc1 [Compound 128, (S)-N-(4-(4-amino-1-methyl-7-((1-(2,2,2-trifluoroethyl)piperidin-4-yl)ethynyl)-1H-pyrazolo[4,3-c]pyridin-3-yl)-2-(1-(4-fluorophenyl)ethoxy)phenyl)-1,1-difluoromethane-sulfonamide]
8 | < 5.00 |  | < 5.00 | C[C@H](Oc1cc(-c2nn(C)c3c(-c4cnn(C(F)(F)F)c4)cnc(N)c23)ccc1NS(=O)(=O)C(F)F)c1ccc(F)cc1 [Compound 134, (S)-N-(4-(4-amino-1-methyl-7-(1-(trifluoromethyl)-1H-pyrazol-4-yl)-1H-pyrazolo[4,3-c]pyridin-3-yl)-2-(1-(4-fluorophenyl)ethoxy)phenyl)-1,1-difluoromethanesulfonamide]
9 | < 5.00 |  | < 5.00 | COCC(Oc1cc(-c2nn(C)c3c(-c4cnn(C5CCN(C)CC5)c4)cnc(N)c23)ccc1NS(=O)(=O)C(F)F)c1ccc(F)cc1 (centres unmarked) [Compound 139, N-(4-(4-amino-1-methyl-7-(1-(1-methyl-piperidin-4-yl)-1H-pyrazol-4-yl)-1H-pyrazolo[4,3-c]pyridin-3-yl)-2-(1-(4-fluorophenyl)-2-methoxyethoxy)phe-nyl)-1,1-difluoro-methanesulfonamide]
10 | < 5.00 |  | < 5.00 | Cn1nc(-c2ccc(NS(=O)(=O)C(F)F)c(OC3(c4ccc(F)cc4)CC3)c2)c2c(N)ncc(-c3cnn(C4CCOCC4)c3)c21 [Compound 140, N-(4-(4-amino-1-methyl-7-(1-(tetrahydro-2H-pyran-4-yl)-1H-pyrazol-4-yl)-1H-pyrazolo[4,3-c]pyridin-3-yl)-2-(1-(4-fluorophenyl)cyclopropoxy)phenyl)-1,1-difluoromethane-sulfonamide]
11 | < 5.00 |  | < 5.00 | C[C@H](Oc1cc(-c2nn(C)c3c(N4CCOCC4)cnc(N)c23)ccc1NS(=O)(=O)C(F)F)c1ccc(F)cc1 [Compound 141, N-{4-[4-amino-1-methyl-7-(morpholin-4-yl)-1H-pyrazolo[4,3-c]pyridin-3-yl]-2-[(1S)-1-(4-fluorophenyl)ethoxy]phenyl}-1,1-difluoromethanesulfonamide]
12 | < 5.00 |  | < 5.00 | C[C@H](Oc1cc(-c2nn(C)c3c(-c4cnn(C5CCN(C)C6(CC6)C5)c4)cnc(N)c23)ccc1NS(=O)(=O)C(F)F)c1ccc(F)cc1 (stereo partly drawn) [Compound 145, N-(4-(4-amino-1-methyl-7-(1-(4-methyl-4-azaspiro[2.5]octan-7-yl)-1H-pyrazol-4-yl)-1H-pyrazolo[4,3-c]pyridin-3-yl)-2-((S)-1-(4-fluorophenyl)ethoxy)phenyl)-1,1-difluoromethanesulfonamide]
13 | < 5.00 |  | < 5.00 | C[C@H](Oc1cc(-c2nn(C)c3c(-c4cnn(C5CCC(F)(F)CC5)c4)cnc(N)c23)ccc1NS(=O)(=O)C(F)F)c1ccc(F)cc1 [Compound 146, (S)-N-(4-(4-amino-7-(1-(4,4-difluorocyclohexyl)-1H-pyrazol-4-yl)-1-methyl-1H-pyrazolo[4,3-c]pyridin-3-yl)-2-(1-(4-fluorophenyl)ethoxy)phenyl)-1,1-difluoromethanesulfonamide]
14 | < 5.00 |  | < 5.00 | Cc1nn(C2CCN(C)C(C)(C)C2)cc1-c1cnc(N)c2c(-c3ccc(NS(=O)(=O)C(F)F)c(O[C@@H](C)c4ccc(F)cc4)c3)nn(C)c12 (stereo partly drawn) [Compound 156, N-(4-(4-amino-1-methyl-7-(3-methyl-1-(1,2,2-trimethylpiperidin-4-yl)-1H-pyrazol-4-yl)-1H-pyrazolo[4,3-c]pyridin-3-yl)-2-((S)-1-(4-fluorophenyl)ethoxy)phenyl)-1,1-difluoromethanesulfonamide]
15 | < 5.00 |  | < 5.00 | Cc1c(-c2cnc(N)c3c(-c4ccc(NS(=O)(=O)C(F)F)c(O[C@@H](C)c5ccc(F)cc5)c4)nn(C)c23)cnn1C1CCN(C)C(C)(C)C1 (stereo partly drawn) [Compound 157, N-(4-(4-amino-1-methyl-7-(5-methyl-1-(1,2,2-trimethylpiperidin-4-yl)-1H-pyrazol-4-yl)-1H-pyrazolo[4,3-c]pyridin-3-yl)-2-((S)-1-(4-fluorophenyl)ethoxy)phenyl)-1,1-difluoromethanesulfonamide]
16 | < 5.00 |  | < 5.00 | C[C@H](Oc1cc(-c2nn(C)c3c(-c4ccc5c(c4)CC(=O)N5C)cnc(N)c23)ccc1NS(=O)(=O)C(F)F)c1ccc(F)cc1 [Compound 165, (S)-N-(4-(4-amino-1-methyl-7-(1-methyl-2-oxoindolin-5-yl)-1H-pyrazolo[4,3-c]pyridin-3-yl)-2-(1-(4-fluorophenyl)ethoxy)phenyl)-1,1-difluoromethanesulfonamide]
17 | < 5.00 |  | < 5.00 | C[C@H](Oc1cc(-c2nn(C)c3c(-c4ccc5c(cnn5C)c4)cnc(N)c23)ccc1NS(=O)(=O)C(F)F)c1ccc(F)cc1 [Compound 166, (S)-N-(4-(4-amino-1-methyl-7-(1-methyl-1H-indazol-5-yl)-1H-pyrazolo[4,3-c]pyridin-3-yl)-2-(1-(4-fluorophenyl)ethoxy)phenyl)-1,1-difluoromethanesulfonamide]
18 | < 5.00 |  | < 5.00 | C[C@H](Oc1cc(-c2nn(C)c3c(-c4cnn(C5CCN(CC(F)(F)F)C(C)(C)C5)c4)cnc(N)c23)ccc1NS(=O)(=O)C(F)F)c1ccc(F)cc1 (stereo partly drawn) [Compound 167, N-(4-(4-amino-7-(1-(2,2-dimethyl-1-(2,2,2-trifluoroethyl)piperidin-4-yl)-1H-pyrazol-4-yl)-1-methyl-1H-pyrazolo[4,3-c]pyridin-3-yl)-2-((S)-1-(4-fluorophenyl)ethoxy)phenyl)-1,1-difluoromethanesulfonamide]
19 | 5.00 to 7.00 |  | < 5.00 | CC1CN(C)CC(C)C1n1cc(-c2cnc(N)c3c(-c4ccc(NS(=O)(=O)C(F)F)c(O[C@@H](C)c5ccc(F)cc5)c4)nn(C)c23)cn1 (stereo partly drawn) [Compound 172, N-(4-(4-amino-1-methyl-7-[1-(1,3,5-trimethylpiperidin-4-yl)-1H-pyrazol-4-yl]-1H-pyrazolo[4,3-c]pyridin-3-yl}-2-[(1S)-1-(4-fluorophenyl)ethoxy]phenyl)-1,1-difluoromethanesulfonamide]
